# “Also recorded” adds a separate entry of the source.
# B1: recombinant human UBXN2A: recombinant GST-tag human UBXN2A protein (SignalChem) (protein, UniProt P68543 1-259, looked up)
# UBX domain-containing protein …: MKDVDNLKSIKEEWVCETGSDNQPLGNNQQSNCEYFVDSLFEEAQKVSSKCVSPAEQKKQVDVNIKLWKNGFTVNDDFRSYSDGASQQFLNSIKKGELPSELQGIFDKEEVDVKVEDKKNEICLSTKPVFQPFSGQGHRLGSATPKIVSKAKNIEVENKNNLSAVPLNNLEPITNIQIWLANGKRIVQKFNITHRVSHIKDFIEKYQGSQRSPPFSLATALPVLRLLDETLTLEEADLQNAVIIQRLQKTASFRELSEH
# modifications: GST tag
# Legend:
# [1] = system: SW-48 (WT-p53) colon cancer cells; assay: Cell viability / clonogenic survival with and without mot-2 inhibitor MKT-077; format: cell-based, human; set-up: dose or concentration left out as unconfirmed; conditions: VTD with mot-2 inhibitor MKT-077, 72 hours
# Experimental: We decided to confirm whether VTD-induced tumor suppression is indeed mediated via the UBXN2A-mot-2-p53 axis (FIG. 18H). After initial verification with WB (FIG. 18A), HCT-116 (p53+/+ and p53 −/−) and LoVo were treated with VTD for 24, 48, and 72 hours (FIG. 18B-D). […] We defined this phenomenon as a delayed cytotoxic response, since it occurs through UBXN2A transcription, as previously described for other anti-cancer agents. […] In the second set of experiments, we treated two stable UBXN2A silenced clones of HCT-116 along with controls with VTD. […] Staurosporine-treated cells were used as a positive control (S4F). […] Finally, to understand the contribution of mot-2 to the anti-cancer mechanism of VTD, we used a mot-2 inhibitor known as MKT-077 [7] along with VTD in well-differentiated SW-48 (WT-p53) colon cancer cells for 72 hours. Due to the critical role of mot-2 in the mitochondria, we could not use a silencing strategy for mot-2 in this set of experiments.
# FIG. 18: Veratridine (VTD) functions via the UBXN2A-mot-2-p53 axis. (A) WB confirmed the presence and the absence of p53 protein in HCT-116 p53^(+/+) and HCT-116 p53^(−/−) cancer cell lines, respectively. […] (F) In another set of experiments, UBXN2A-silenced cells were treated with VTD (100, 200, and 300 μM) for 24 hours. Cells were then labelled with Sytox Red followed by flow cytometry analysis. […] (G) SW48 well-differentiated colon cancer cells with WT-p53 were treated with MKT-077 (5 mg/ml), an mot-2 inhibitor, along with VTD for 72 hours. […] (H) This flowchart recapped the sequence of proteins which activate and function upon VTD exposure to decrease cell viability. The data is shown as mean±SEM of three independent experiments (n=3) in triplicate where *p<0.05 using Benferroni's modified student's t-test.
# LoVo [2] = system: LoVo
# Experimental: (§1) Besides the cell viability assay, we decided to measure the apoptotic activity in the above combination therapy.
# (§2) Cells were treated with 5-FU (5-100 μM) and etoposide (1-50 μM) along with VTD (30 and 100 μM respectively) in two different set of experiments for 24 hours.
# (§3) An MTT (3[4, 5-dimethylthiazol-2-yl]-2, 5-diphenyltetrazolium bromide) assay was performed to measure the viability of cells. Briefly, cells were seeded at a density of 10×10^3 cells per well in phenol-red free growth media. After 24 hours, cells were treated with various concentrations of VTD±5-FU or etoposide. After incubation, an MTT dye was added to the cells for 2-4 hours. The absorbance of samples was measured at 630 nm using an EXL808 absorption spectrophotometer (Biotek, Winooski). The viability of cells was calculated as % of control. Cell detachment and clonogenic survival assays were conducted as previously described. Early apoptosis, caspase-3, cleaved PARP and Sytox Red (Life Technology, NY, USA) were measured by the Accuri C6 flow cytometer system (BD Pharmingen, MD, USA).[54]
# (§4) (A-H) (A-C) HCT-116 and (D-F) LoVo were treated with VTD (10-300 μM) for 24, 48, and 72 hours. A suboptimal dose of Etoposide (ETO) ([…]) was added to cells for the last 24 hours only. The viability of cells was determined as % of control (untreated cells) using an MTT assay. […] (G-H) HCT-116 (G) and LoVo (H) cells were treated with VTD (10-200 μM) and a suboptimal dose of ETO (5 μM) for 24 hours. Cells were then stained with Annexin V apoptotic marker. […] (I-L) HCT-116 and LoVo cells were treated with different doses of 5-FU (5-100 μM, I-J) and ETO (1-50 μM, K-L) along with VTD (30 μM and 100 μM respectively) for 24 hours.
# HCT-116 [3] = system: HCT-116
# Experimental: as §1, §2, §3, §4
# LoVo [4] = assay: Annexin V early apoptosis, VTD plus etoposide; format: cell-based, human; conditions: VTD 10-200 μM plus etoposide 5 μM, 24 hours
# Experimental: (§5) The viability of cells was calculated as % of control.
# (§6) Cells were then stained with Annexin V apoptotic marker.
# HCT-116 [5] = assay: Annexin V early apoptosis, VTD plus etoposide; format: cell-based, human; conditions: VTD 10-200 μM plus etoposide 5 μM, 24 hours
# Experimental: as §5, §6
# p53 = assay: Western blot of p53 in cytoplasm and nuclear fractions of etoposide-treated HCT-116 cells; format: cell-based, human; conditions: 20 and 50 μM etoposide, 24 h
# Description: Small molecules, p53 c-terminus peptides, and silenced mot-2 abrogate mot-2-p53 complexes, resulting in p53 nuclear localization. Because UBXN2A is capable of releasing p53 from mot-2, we decided to determine whether UBXN2A can lead to p53 nuclear accumulation in a similar mechanism. HCT-116 cells were transiently transfected with different amounts of UBXN2A plasmid. Exogenous UBXN2A was detected dominantly in the cytoplasm fraction (FIG. 4a), and, therefore, it is an ideal model to identify the cellular consequences of UBXN2A gain-of-function. After 48 h, nuclear and cytoplasmic fractions were collected, followed by WB analysis (FIGS. 4a-d). […] Similar to several previously reported scenarios,^23 co-upregulation of UBXN2A with p53 may be essential to inhibiting mot-2 and delivering maximum p53 into nuclei during the initiation of genotoxic stress. Similar results were obtained in response to single DNA-strand damage produced by UVB irradiation. In the next step, we decided to determine whether UBXN2A increases the transcriptional activities of p53. We found overexpression of UBXN2A led to upregulation of BAX protein^24 (FIG. 4g). In addition, the level of cleaved PARP increased in the presence of overexpressed UBXN2A (FIG. 4g). […]
# UBXN2A = assay: RT-PCR and western blot of UBXN2A in etoposide-treated HCT-116 cells; format: cell-based, human
# p53-mot-2 = biological target: T1, p53-mot-2 (Homo sapiens, UniProt P38646); assay: In vitro competition immunoprecipitation assay (mot-2, p53, recombinant UBXN2A); format: binding
# T1 construct: purchased SignalChem (Richmond, CANADA)
# T1 sequence (P38646 47-679): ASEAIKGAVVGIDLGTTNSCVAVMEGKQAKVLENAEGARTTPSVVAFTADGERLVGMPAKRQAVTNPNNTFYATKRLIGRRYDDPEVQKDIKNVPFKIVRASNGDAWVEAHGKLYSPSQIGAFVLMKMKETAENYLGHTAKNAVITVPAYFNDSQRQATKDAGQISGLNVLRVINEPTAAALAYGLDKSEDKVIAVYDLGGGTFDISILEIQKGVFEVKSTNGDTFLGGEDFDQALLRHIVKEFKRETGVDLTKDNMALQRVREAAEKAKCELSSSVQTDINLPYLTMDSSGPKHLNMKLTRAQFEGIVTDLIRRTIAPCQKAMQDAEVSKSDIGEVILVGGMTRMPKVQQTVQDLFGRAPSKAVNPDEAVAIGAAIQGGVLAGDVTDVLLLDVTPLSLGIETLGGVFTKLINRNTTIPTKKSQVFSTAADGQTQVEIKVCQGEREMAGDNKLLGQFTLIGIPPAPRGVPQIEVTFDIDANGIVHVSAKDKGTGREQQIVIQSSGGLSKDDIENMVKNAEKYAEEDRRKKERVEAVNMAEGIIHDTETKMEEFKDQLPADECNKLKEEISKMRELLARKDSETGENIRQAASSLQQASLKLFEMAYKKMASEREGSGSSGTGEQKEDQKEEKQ
# Description: Because mot-2 binds to the […] of p53 and sequesters WT-p53 in the cytoplasm, we asked whether binding UBXN2A to mot-2 can alter mot-2's affinity for p53. […] That is, the two complexes might be mutually exclusive. To further determine whether the binding of mot-2 to UBXN2A decreases the binding of mot-2 to p53, we performed two set of immunoprecipitation experiments with recombinant UBXN2A. FIG. 3a describes an in vitro competition immunoprecipitation assay system containing mot-2, p53, and an increasing amount of recombinant UBXN2A. […] The lowest binding between p53-mot-2 was observed when UBXN2A and mot-2 were present in approximately a 1:1 ratio by their molecular mass (lane 1 versus lane 2). In FIG. 3b, cytosolic fractions enriched with mot-2 and p53 proteins (fractions 3-5, FIG. 2e) were incubated with recombinant GST-tag human UBXN2A protein. After the initial 2 h of incubation, samples were subjected to immunoprecipitation with anti-p53 antibodies. GST-UBXN2A and endogenous mot-2 ratio was 2.5:1 in the reaction. […] Next, we decided to verify whether endogenous UBXN2A can interfere with mot-2-p53 binding using an ex vivo model. […]
# FIG. 3 UBXN2A and p53 compete for binding to mot-2. […] Mot-2 proteins were eluted from the beads and analyzed by western blotting using an anti-mot-2 antibody. […]
molecule,measurement,setting,value
CCn1c(=O)/c(=C2\Sc3ccccc3N2C)s/c1=C\c1cccc[n+]1CC.[Cl-] [MKT-077],cell viability / colony number,[1],neutralizes the cytotoxic effect of VTD
COc1cc([C@@H]2c3cc4c(cc3[C@@H](O[C@@H]3O[C@@H]5CO[C@@H](C)O[C@H]5[C@H](O)[C@H]3O)[C@H]3COC(=O)[C@H]23)OCO4)cc(OC)c1O [etoposide],"cell viability (MTT), combination",LoVo [2],significantly enhanced the VTD-induced decrease in cell viability
same,effectiveness of etoposide alone (MTT),"LoVo [2]; LoVo versus HCT-116, time-dependent",more effectiveness in well differentiated cells (LoVo) than HCT-116 cells
same,"cell viability (MTT), combination",HCT-116 [3],significantly enhanced the VTD-induced decrease in cell viability
same,early apoptosis (Annexin V),LoVo [4],significantly sensitizes
same,early apoptosis (Annexin V),HCT-116 [5],significantly sensitizes
same,p53 upregulation and nuclear localization,p53,upregulation and nuclear localization of p53 becomes significant
same,UBXN2A protein,"UBXN2A; etoposide 20 and 50 μM, 24 h",increased; also recorded: significant upregulation of UBXN2A
same,UBXN2A mRNA,UBXN2A; etoposide 24 h,increased; also recorded: enhances transcription of UBXN2A
B1,mot-2 protein-bound p53,"p53-mot-2; HCT-116 cytosolic fractions 3-5, GST-UBXN2A to endogenous mot-2 ratio 2.5:1, 2 h",decreased the amount of mot-2 protein-bound p53
same,mot-2 pulled down by anti-p53 antibodies,"p53-mot-2; recombinant GST-p53, GST-mot-2, increasing amounts of UBXN2A",decreased the intensity of mot-2 bands

# Reference: US12233129B2, “Methods and compositions for the treatment of cancer” (priority 2019, dated 2025)
